{"source": "patent US9359378B2", "about": "“Substituted oxazolo[3,4-a]pyrazines as pharmaceutcals” (BIOLAB SANUS FARMACÊUTICA LTDA., priority 2014, dated 2016)", "test_system": "rabbit's corpus cavernosum", "experiment": "Relaxing effect in isolated rabbit's corpus cavernosum strips pre-contracted with phenylephrine (isometric tension)", "set-up": "species or system New Zealand White rabbits", "details": "strips pre-contracted with 1 μM PE; FIGS. 12 and 13", "method": "For this study, New Zealand White rabbits (2 to 3.5 kg) were used to obtain penile tissue which was excised and transferred to a chilled Krebs solution. For this study, we used cavernosum strips (CC) of the penile tissue of New Zealand White rabbits. The strips were mounted in 10 ml tissue incubation chambers containing Krebs solution at 37° C., pH occurring between 7.3 and 7.5; continuously bubbled with a mixture of 95% oxygen (O2) and 5% carbon dioxide (CO2). An initial tension of 10 mN were applied on the tissues, followed by a 60 minute stabilization period. Changes in tension (isometric force) were obtained using isometric transducers (ADInstruments, Australia) and recorded in a data acquisition system PowerLab 4/30 (Chart Software, version 7.3.7, ADInstruments, MA, USA for BL-230 and version 7.0 ADInstruments, MA for the BL-236). […] Cumulative curve responses to the concentration of BL-230 compounds and tadalafil (0.001 to 10 μM) were obtained in the pre-contracted rabbit corpus cavernosum strips with 1 μM PE.", "data": [{"smiles": "CN1CC(=O)N2[C@H](c3ccc4c(c3)OCO4)c3[nH]c4ccccc4c3C[C@@H]2C1=O", "note": "[tadalafil, reference compound]", "values": [{"measurement": "percentage of relaxation in rabbit's corpus cavernosum", "result": "around 100%"}]}]}
